Experiments:
[1] = test system: U-937; experiment: MTS cell proliferation assay, U-937; type: cell-based; conditions: Homo sapiens; U-937, 72 hr
Method: Cell proliferation was measured using the CellTiter 96 Aqueous Non-Radioactive Cell Proliferation Assay (Promega). The CellTiter 96® AQueous Assay is composed of solutions of a tetrazolium compound [3-(4,5-dimethylthiazol-2-yl)-5-(3-carboxymethoxyphenyl)-2-(4-sulfophenyl)-2H-tetrazolium, inner salt; MTS] and an electron coupling reagent (phenazine methosulfate) PMS. MTS is bioreduced by cells into a formazan product that is soluble in tissue culture medium. The absorbance of the formazan product at 490 nm can be measured directly from assay plates without additional processing. The quantity of formazan product as measured by the amount of 490 nm absorbance is directly proportional to the number of living cells in culture. Cells were seeded into 96-well or 384-well clear plates in a volume of 200 μL (96-well) or 50 μL (384-well) at optimized densities ranging from 1,000 to 40,000 cells per well for 96-well plates or 1,200 to 25,000 cells per well for 384-well plates depending on cell-line. After 4-6 hr recovery, serially diluted compounds in DMSO were added to the cells using (0.1% v/v final DMSO concentration). Cells were then grown at 37° C. in a humidified incubator with 5% CO2 for 72 hr. A 20:1 [3-(4,5-dimethylthiazol-2-yl)-5-(3-carboxymethoxyphenyl)-2-(4-sulfophenyl)-2H-tetrazolium](MTS):phenazine methosulfate (PMS) solution in DPBS was made immediately before use, added to each well, and cells were incubated for 1.5 hr at 37° C. The absorbance at 490 nm was then measured using a platereader. Absorbance values were normalized as percent of control (cells incubated in the presence of 0.1% v/v DMSO). Sigmoidal dose-response curves were plotted using log(inhibitor) vs. response—Variable slope (four parameters) model with a top value constrained to 100% (GraphPad Prism version 6.00 for Windows, GraphPad Software, La Jolla California USA). […] Curves for compounds that reached a plateau were matched exactly to the measurement points. […]

[2] = test system: Jeko; experiment: MTS cell proliferation assay, Jeko; type: cell-based; conditions: Homo sapiens, 72 hr
Method: Cell proliferation was measured using the CellTiter 96 Aqueous Non-Radioactive Cell Proliferation Assay (Promega). The CellTiter 96® AQueous Assay is composed of solutions of a tetrazolium compound [3-(4,5-dimethylthiazol-2-yl)-5-(3-carboxymethoxyphenyl)-2-(4-sulfophenyl)-2H-tetrazolium, inner salt; MTS] and an electron coupling reagent (phenazine methosulfate) PMS. MTS is bioreduced by cells into a formazan product that is soluble in tissue culture medium. The absorbance of the formazan product at 490 nm can be measured directly from assay plates without additional processing. The quantity of formazan product as measured by the amount of 490 nm absorbance is directly proportional to the number of living cells in culture. Cells were seeded into 96-well or 384-well clear plates in a volume of 200 μL (96-well) or 50 μL (384-well) at optimized densities ranging from 1,000 to 40,000 cells per well for 96-well plates or 1,200 to 25,000 cells per well for 384-well plates depending on cell-line. After 4-6 hr recovery, serially diluted compounds in DMSO were added to the cells using (0.1% v/v final DMSO concentration). Cells were then grown at 37° C. in a humidified incubator with 5% CO2 for 72 hr. A 20:1 [3-(4,5-dimethylthiazol-2-yl)-5-(3-carboxymethoxyphenyl)-2-(4-sulfophenyl)-2H-tetrazolium](MTS):phenazine methosulfate (PMS) solution in DPBS was made immediately before use, added to each well, and cells were incubated for 1.5 hr at 37° C. The absorbance at 490 nm was then measured using a platereader. Absorbance values were normalized as percent of control (cells incubated in the presence of 0.1% v/v DMSO). Sigmoidal dose-response curves were plotted using log(inhibitor) vs. response—Variable slope (four parameters) model with a top value constrained to 100% (GraphPad Prism version 6.00 for Windows, GraphPad Software, La Jolla California USA). […] Curves for compounds that reached a plateau were matched exactly to the measurement points. […] To determine potential of compounds of the invention to affect viability of hematological cancers, cell lines representing various tumor types were selected and tested. Human cell lines tested were: MOLM-13 (acute myeloid leukemia (AML)), MV4-11 (AML), U-2932 (ABC-diffuse large B cell lymphoma), U-937 (histiocytic lymphoma), U-266 (multiple myeloma), RPMI-8226 (multiple myeloma), CMK (megakaryoblastic cell line), SU-DHL-4 (GCB-diffuse large B cell lymphoma), KG1 (AML), Mec-1 (chronic B-cell leukemia), MOLM-16 (AML), Jeko (B-cell lymphoma), WSU-DLCL2 (B-cell lymphoma), JJN3 (plasma cell leukemia), SU-DHL-6 (GCB-diffuse large B cell lymphoma), and Z-138 (mantle cell lymphoma). In addition, two murine cell lines were tested: A20 […].

[3] = test system: MV4-11 tumor xenografts; experiment: MV4-11 tumor xenograft efficacy; type: in vivo, mice
Description: MV4-11 cells were propagated in vitro and implanted subcutaneous into the right flank of 9-week old female NCr nu/nu mice as described in Example 7. The animals were fed ad libitum water (reverse osmosis, 1 ppm Cl), and NIH 31 Modified and Irradiated Lab Diet® consisting of 18.0% crude protein, 5.0% crude fat, and 5.0% crude fiber. Fourteen days after tumor implantation, designated as Day 1 of the study, the animals were sorted into seven groups each consisting of ten mice with individual tumor volumes of 108 to 288 mm^3 and group mean tumor volumes (MTV) of 162 to 165 mm^3. On Day 1 of the study, dosing by oral gavage was initiated as follows: The dosing volume was 0.100 mL per 20 grams of body weight (5 mL/kg), and was scaled to the body weight of each individual animal. Group 1 mice received vehicle and served as the control group. Groups 2-4 received Compound 1 at 5, 11, and 25 mg/kg, respectively, qd×21. Groups 5-7 received Compound 2 at 5, 11, and 25 mg/kg, respectively, qd×21. Dosing solutions were prepared weekly by dissolving the appropriate amount of powder in 1% […] (DMA) in Labrasol® (vehicle) to yield a 5 mg/mL solution. The 5 mg/mL solution provided the 25 mg/kg dosage in a dosing volume of 5 mL/kg. An aliquot of the 5 mg/mL solution was diluted in the vehicle to concentrations of 2.2 and 1 mg/mL which provided the 11 and 5 mg/kg dosages, respectively, in a dosing volume of 5 mL/kg.
Tumors were measured using calipers twice per week. The study endpoint was defined as a mean tumor volume of 2000 mm^3 in the control group or 22 days, whichever came first and the study was terminated on Day 22. Animals were weighed daily on Days 1-5, then twice per week until the completion of the study. The mice were observed frequently for overt signs of any adverse, treatment related (TR) side effects, and clinical signs were recorded when observed. Individual body weight loss was monitored as per protocol and any animal whose weight exceeded the limits for acceptable body weight loss was euthanized. Group mean body weight loss also was monitored as per protocol. Dosing was to be suspended in any group whose weight exceeded the limits for acceptable mean body weight loss. If mean body weight recovered, then dosing may be resumed in that group, but at a lower dosage or less frequent dosing schedule. Acceptable toxicity was defined as a group mean body weight loss of less than 20% during the study and not more than 10% treatment-related (TR) deaths. Any dosing regimen resulting in greater toxicity was considered above the maximum tolerated dose (MTD). A death was classified as TR if attributable to treatment side effects as evidenced by clinical signs and/or necropsy, or may also be classified as TR if due to unknown causes during the dosing period or within 14 days of the last dose. A death was classified as non-treatment-related (NTR) if there was no evidence that death was related to treatment side effects.
Treatment efficacy was determined using data from the final day. The MTV (n) (the median tumor volume for the number of animals, n) on the final day was determined for each group. Group 1 mice that received vehicle p.o. qd×21 served as the control group for analysis of tumor growth inhibition (TGI) determined according to the formula % TGI=[1−(MTVdrug-treated/MTVcontrol)]×100. Treatment efficacy was also determined from the incidence and magnitude of regression responses observed during the study. Treatment may cause partial regression (PR) or complete regression (CR) of the tumor in an animal. In a PR response, the tumor volume was 50% or less of its Day 1 volume for three consecutive measurements during the course of the study, and equal to or greater than 13.5 mm^3 for one or more of these three measurements. In a CR response, the tumor volume was less than 13.5 mm^3 for three consecutive measurements during the course of the study.

[4] = Oral pharmacokinetics in mice; type: in vivo; conditions: for Tmax / bioavailability: mouse, in vivo, oral; for bioavailability: read-out: oral bioavailability % F

| SMILES | EC50 [1] | EC50 [2] | MTV (median tumor volume) on Day 22 ([3]; 5 mg/kg p.o. qd×21) | TGI (tumor growth inhibition) ([3]; 5 mg/kg p.o. qd×21, Day 22) | regression responses (PRs) ([3]; 5 mg/kg p.o. qd×21, ten mice) | MTV (median tumor volume) on Day 22 ([3]; 11 mg/kg p.o. qd×21) | TGI (tumor growth inhibition) ([3]; 11 mg/kg p.o. qd×21, Day 22) | regression responses (PRs) ([3]; 11 mg/kg p.o. qd×21, ten mice) | MTV (median tumor volume) on Day 22 ([3]; 25 mg/kg p.o. qd×21) | TGI (tumor growth inhibition) ([3]; 25 mg/kg p.o. qd×21, Day 22) | regression responses (PRs) ([3]; 25 mg/kg p.o. qd×21, ten mice) | half-life [4] | Tmax [4] | bioavailability [4] |
| --- | --- | --- | --- | --- | --- | --- | --- | --- | --- | --- | --- | --- | --- | --- |
| C[C@H](NC(=O)c1nc(C#N)cnc1NCc1ccc(-c2cnc3[nH]nc(N)c3n2)cc1)c1ccc(F)c(F)c1 [Compound 1, 3-[4-(3-Amino-1H-pyrazolo[3,4-b]pyrazin-5-yl)-benzylamino]-6-cyano-pyrazine-2-carboxylic acid [1-(3,4-difluoro-phenyl)-ethyl]-amide] | 123 nM | 286 nM | 446 mm^3 | 69% | no regression responses | 288 mm^3 | 80% | no regression responses | 63 mm^3 | 96% | seven | long half-life | 4 to 8 h | > 40% |
| CNc1n[nH]c2ncc(-c3ccc(CNc4ncc(C#N)nc4C(=O)N[C@@H](C)c4ccc(F)c(F)c4)cc3)cc12 [Compound 2, 6-Cyano-3-[4-(3-methylamino-1H-pyrazolo[3,4-b]pyridin-5-yl)-benzylamino]-pyrazine-2-carboxylic acid [1-(3,4-difluoro-phenyl)-ethyl]-amide] | 74 nM | 279 nM | 320 mm^3 | 77% | no regression responses | 108 mm^3 | 92% | three | 40 mm^3 | 97% | eight | long half-life | 4 to 8 h | > 40% |
